Data reported in publication PMC3146814, “The crystal structure of alanine racemase from Streptococcus pneumoniae, a target for structure-based drug design” (BMC Microbiology, 2011).

B1: alanine racemase from Streptococcus pneumoniae (enzyme, UniProt P0A2W8 1-367, looked up)
chain: MKASPHRPTKALIHLGAIRQNIQQMGAHIPQGTLKLAVVKANAYGHGAVAVAKAIQDDVDGFCVSNIDEAIELRQAGLSKPILILGVSEIEAVALAKEYDFTLTVAGLEWIQALLDKEVDLTGLTVHLKIDSGMGRIGFREASEVEQAQDLLQQHGVCVEGIFTHFATADEESDDYFNAQLERFKTILASMKEVPELVHASNSATTLWHVETIFNAVRMGDAMYGLNPSGAVLDLPYDLIPALTLESALVHVKTVPAGACMGYGATYQADSEQVIATVPIGYADGWTRDMQNFSVLVDGQACPIVGRVSMDQITIRLPKLYPLGTKVTLIGSNGDKEITATQVATYRVTINYEVVCLLSDRIPREYY
modifications: PLP covalently bound to Lys40 by an internal aldimine bond (N'-pyridoxyl-lysine-5'-monophosphate, LLP); carbamylated Lys129
notes: alanine racemase (E.C. 5.1.1.1) of Streptococcus pneumoniae; the gene was cloned into pET17; the model holds residues 1-367 of each monomer (734 residues, 100%): alpha/beta barrel domain 1-238 and beta-strand domain 239-367; no tag is named; also called AlrSP; Alr

Key:
[1] = biological target: T1, alanine racemase from S. pneumoniae (AlrSP) (Streptococcus pneumoniae, UniProt P0A2W8); assay: X-ray crystallography, […] Å; format: binding; conditions: covalent; internal aldimine with Lys40 (LLP residue); active site; crystals grown at pH 7.2, 4 °C
T1 construct: gene alr; untagged as far as told, gene in pET17, E. coli BL21(DE3) pLysS; monomer residues 1-367; homodimer; Lys129 carbamylated
T1 sequence (P0A2W8 1-367): B1 chain

[2] = biological target: the molecule itself; assay: crystal structure; sitting drop vapor diffusion at 4°C, 1.2 M Na citrate, 0.1 M MES pH 7.2, 10% glycerol, protein 23 mg/ml; space group P3(1)21, two monomers in the asymmetric unit; 2.0 Å

Molecule | X-ray crystallography, 2.0 Å [1] | stoichiometry N [2]
Cc1ncc(COP(=O)(O)O)c(C=O)c1O [pyridoxal phosphate (PLP)] | The pyridoxal phosphate (PLP) cofactor is connected to Lys40 through an internal aldimine bond | –
B1 | – | 2
